In US10611751B2, “Dopamine D1 receptor positive allosteric modulators” (Eli Lilly and Company, priority 2018, dated 2020):
Like-named read-outs stand apart in the source and are kept apart here.

How the values were obtained:
[1] = Fraction unbound in plasma and brain, determined in vitro (equilibrium dialysis); format: in vitro ADME
Procedure: Example 1 is orally dosed to male mouse from 1 mg/kg to 30 mg/kg in fed condition, and the plasma and brain concentration are determined 1.5 hr post-dose. The fraction unbound of the compound is determined in vitro as described previously (Zamek-Gliszczynski M J, Ruterbories K J, Ajamie R T, Wickremsinhe E R, Pothuri L, Rao M V, Basavanakatti V N, Pinjari J, Ramanathan V K, Chaudhary A K (2011) Validation of 96-well equilibrium dialysis with non-radiolabeled drug for definitive measurement of protein binding and application to clinical development of highly-bound drugs. J Pharm Sci 100: 2498-2507). The ratio (Kpuu) of unbound brain concentration (Cu,brain) vs. unbound plasma concertation (Cu,plasma) is determined as described previously (Raub T J, Wishart G N, Kulanthaivel P, Staton B A, Ajamie R T, Sawada G A, Gelbert L M, Shannon H E, Sanchez-Martinez C, De Dios A (2015) Brain Exposure of Two Selective Dual CDK4 and CDK6 Inhibitors and the Antitumor Activity of CDK4 and CDK6 Inhibition in Combination with Temozolomide in an Intracranial Glioblastoma Xenograft. Drug Metab Dispos. 43:1360-71). The data presented below for Example 1 are averages from 3 animals at each dose. “Con.” refers to concentration.
Example 8 was orally dosed to male mouse from 3 mg/kg to 60 mg/kg in fed condition, and the plasma and brain concentration was determined 1 hr post-dose. The fraction unbound of the compound was determined in vitro as described previously (Zamek-Gliszczynski M J, et al., Validation of 96-well equilibrium dialysis with non-radiolabeled drug for definitive measurement of protein binding and application to clinical development of highly-bound drugs, J. Pharm. Sci. (2011) 100: 2498-2507). The ratio (Kpuu) of unbound brain concentration (Cu,brain) vs. unbound plasma concertation (Cu,plasma) was determined as described previously (Raub T J, et al., Brain Exposure of Two Selective Dual CDK4 and CDK6 Inhibitors and the Antitumor Activity of CDK4 and CDK6 Inhibition in Combination with Temozolomide in an Intracranial Glioblastoma Xenograft. Drug Metab. Dispos. (2015) 43:1360-71). The data presented below for Example 8 are averages from 3 animals at each dose.

[2] = Plasma and Brain Levels after oral dosing; format: in vivo; conditions: fed
Procedure: Example 1 is orally dosed to male mouse from 1 mg/kg to 30 mg/kg in fed condition, and the plasma and brain concentration are determined 1.5 hr post-dose. The fraction unbound of the compound is determined in vitro as described previously (Zamek-Gliszczynski M J, Ruterbories K J, Ajamie R T, Wickremsinhe E R, Pothuri L, Rao M V, Basavanakatti V N, Pinjari J, Ramanathan V K, Chaudhary A K (2011) Validation of 96-well equilibrium dialysis with non-radiolabeled drug for definitive measurement of protein binding and application to clinical development of highly-bound drugs. J Pharm Sci 100: 2498-2507). The ratio (Kpuu) of unbound brain concentration (Cu,brain) vs. unbound plasma concertation (Cu,plasma) is determined as described previously (Raub T J, Wishart G N, Kulanthaivel P, Staton B A, Ajamie R T, Sawada G A, Gelbert L M, Shannon H E, Sanchez-Martinez C, De Dios A (2015) Brain Exposure of Two Selective Dual CDK4 and CDK6 Inhibitors and the Antitumor Activity of CDK4 and CDK6 Inhibition in Combination with Temozolomide in an Intracranial Glioblastoma Xenograft. Drug Metab Dispos. 43:1360-71). The data presented below for Example 1 are averages from 3 animals at each dose. “Con.” refers to concentration. […]

[3] = target: human D1 receptor (Homo sapiens (Human), UniProt P21728); test: Human D1 Receptor PAM Assay (cAMP HTRF, potentiator mode with EC20 dopamine); format: cell-based; conditions: for EC50: HEK293 cells expressing human D1 receptor, 12 nM dopamine (EC20), cAMP, read-out: Abs EC50; for Emax: fitted top of curve, 0% = EC20 dopamine, 100% = 5 μM dopamine, read-out: % Top (% Potentiation)
Sequence of human D1 receptor (P21728 whole entry): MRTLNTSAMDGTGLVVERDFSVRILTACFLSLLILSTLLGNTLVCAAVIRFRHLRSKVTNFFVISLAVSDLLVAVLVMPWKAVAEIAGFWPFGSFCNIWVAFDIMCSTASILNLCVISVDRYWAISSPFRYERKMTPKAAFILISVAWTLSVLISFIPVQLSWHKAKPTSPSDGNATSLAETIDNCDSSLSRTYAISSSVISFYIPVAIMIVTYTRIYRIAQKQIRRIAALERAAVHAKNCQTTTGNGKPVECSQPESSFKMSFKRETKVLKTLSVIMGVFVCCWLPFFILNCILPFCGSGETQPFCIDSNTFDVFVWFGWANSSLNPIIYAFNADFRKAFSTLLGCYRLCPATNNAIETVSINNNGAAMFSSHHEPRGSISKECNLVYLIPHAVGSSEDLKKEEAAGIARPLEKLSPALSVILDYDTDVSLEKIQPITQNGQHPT
Source text: The PAM activity of the compounds of the present invention may be measured essentially as described in Svensson et al., An Allosteric Potentiator of the Dopamine D1 Receptor Increases Locomotor Activity in Human D1 Knock-in Mices without Casusing Stereotypy or Tachyphylaxis. J. Pharmacol. Exp. Ther. (2017) 360:117-128.
More specifically, HEK293 cells that stably express the human D1 receptor (Accession number NM_000794) are generated by gene transduction using the pBABE-bleo retroviral vector and selected with Zeocin™ (InvivoGen). At approximately 80% confluency, the cells are harvested using TrypLE™ Express (Gibco), suspended in FBS plus 8% DMSO, and stored in liquid nitrogen. On the day of the assay, cells are thawed and resuspended in STIM buffer (Hanks Balanced Salt Solution supplemented with 0.1% BSA, 20 mM HEPES, 500 μM IBMX, and 100 μM ascorbic acid).
Test compound is serially diluted (1:2) with DMSO into assay plates (ProxiPlate-384 Plus, PerkinElmer) using acoustic dispensing (Labcyte) to provide 20 concentrations for full response curves. […] Plates are incubated at room temperature for a total reaction time of 60 min.
cAMP production is quantified using HTRF® detection (Cisbio) according to the manufacturer's instructions. Generally, lysis buffer containing anti-cAMP cryptate (5 μL) and D2-conjugate (from HTRF® kit) (5 μL) is added to the wells, plates are incubated for an additional 60-90 min, and the time-resolved fluorescence is detected using an EnVision™ plate reader (PerkinElmer). Fluorescence data is converted to cAMP concentrations using a cAMP standard curve and analyzing using a 4-parameter non-linear logistic equation (Genedata Screener, version 13.0.5-standard). For potentiator mode concentration-response curves, results are expressed as percent of the window between a response at EC20 concentration of dopamine alone (normalized to 0%) and the maximum response to dopamine (defined by response to 5 μM dopamine, final concentration, normalized as 100%).
Absolute EC50 values are calculated based on the maximum and minimum responses of the control agonist (dopamine). The % Potentiation (% Top) is determined from the fitted top of the concentration response curve.

[4] = fraction unbound in brain, read-out: fu, brain
[5] = fraction unbound in plasma, read-out: fu, plasma
[6] = 3 mg/kg oral, male mouse, 1.5 hr
[7] = 3 mg/kg oral, male mouse, 1.5 hr, read-out: Brain con.
[8] = 3 mg/kg oral, male mouse, 1.5 hr, read-out: Cu, brain
[9] = 3 mg/kg oral, male mouse, 1.5 hr, read-out: Cu, plasma
[10] = 10 mg/kg oral, male mouse, 1.5 hr
[11] = 10 mg/kg oral, male mouse, 1.5 hr, read-out: Brain con.
[12] = 10 mg/kg oral, male mouse, 1.5 hr, read-out: Cu, brain
[13] = 10 mg/kg oral, male mouse, 1.5 hr, read-out: Cu, plasma
[14] = 30 mg/kg oral, male mouse, 1.5 hr
[15] = 30 mg/kg oral, male mouse, 1.5 hr, read-out: Brain con.
[16] = 30 mg/kg oral, male mouse, 1.5 hr, read-out: Cu, brain
[17] = 30 mg/kg oral, male mouse, 1.5 hr, read-out: Cu, plasma
[18] = brain/plasma, 3 mg/kg oral, male mouse, 1.5 hr, read-out: Kpuu (Cu,brain vs. Cu,plasma)
[19] = brain/plasma, 10 mg/kg oral, male mouse, 1.5 hr, read-out: Kpuu (Cu,brain vs. Cu,plasma)
[20] = brain/plasma, 30 mg/kg oral, male mouse, 1.5 hr, read-out: Kpuu (Cu,brain vs. Cu,plasma)

Row | SMILES | fraction unbound [1, 4] | fraction unbound [1, 5] | Plasma con. [2, 6] [nM] | concentration at 1 h [2, 7] [µM] | concentration at 1 h [2, 8] [µM] | concentration at 1 h [2, 9] [µM] | Plasma con. [2, 10] [nM] | concentration at 1 h [2, 11] [µM] | concentration at 1 h [2, 12] [µM] | concentration at 1 h [2, 13] [µM] | Plasma con. [2, 14] [nM] | concentration at 1 h [2, 15] [µM] | concentration at 1 h [2, 16] [µM] | concentration at 1 h [2, 17] [µM] | Kp uu [2, 18] | Kp uu [2, 19] | Kp uu [2, 20] | EC50 [3] [µM] | Emax [3] [%] | other results
1 | C[C@H]1c2cccc(-c3cnn(C)c3)c2C[C@H](CO)N1C(=O)Cc1c(Cl)cccc1Cl [Example 1, 2-(2,6-dichlorophenyl)-1-((1S,3R)-3-(hydroxymethyl)-1-methyl-5-(1-methyl-1H-pyrazol-4-yl)-3,4-dihydroisoquinolin-2(1H)-yl)ethan-1-one] | 0.025 | 0.027 | 86.6 | 0.06 | 0.0015 | 0.00234 | 120 | 0.0576 | 0.00144 | 0.00323 | 1660 | 0.794 | 0.0199 | 0.0449 | 1.06 | 0.44 | 0.65 | 0.0164 ± 0.00318 | 91.4 | Cu, brain ([2]; 1 mg/kg oral, male mouse, 1.5 hr): BQL; Brain con. ([2]; 1 mg/kg oral, male mouse, 1.5 hr, BQL = below 1 ng/mg tissue): BQL; Kp uu at 1.5 h ([2]; brain/plasma, 6 mg/kg oral, male mouse, read-out: Kpuu (Cu,brain vs. Cu,plasma)): 0.65; concentration at 1.5 h ([2]; male, mouse, brain, oral, 6 mg/kg, 6 mg/kg oral, read-out: Brain con.): 0.129 µM; concentration at 1.5 h ([2]; male, mouse, brain, oral, 6 mg/kg, 6 mg/kg oral, read-out: Cu, brain): 0.00322 µM; concentration at 1.5 h ([2]; male, mouse, plasma, oral, 1 mg/kg, 1 mg/kg oral, read-out: Cu, plasma): 0.000182 µM; concentration at 1.5 h ([2]; male, mouse, plasma, oral, 1 mg/kg, 1 mg/kg oral, read-out: Plasma con.): 0.00674 µM; concentration at 1.5 h ([2]; male, mouse, plasma, oral, 6 mg/kg, 6 mg/kg oral, read-out: Cu, plasma): 0.00467 µM; concentration at 1.5 h ([2]; male, mouse, plasma, oral, 6 mg/kg, 6 mg/kg oral, read-out: Plasma con.): 0.173 µM
2 | C[C@H]1c2cccc(-c3cn[nH]c3)c2C[C@H](CO)N1C(=O)Cc1c(Cl)cccc1Cl [Example 8, 2-(2,6-dichlorophenyl)-1-((1S,3R)-3-(hydroxymethyl)-1-methyl-5-(1H-pyrazol-4-yl)-3,4-dihydroisoquinolin-2(1H)-yl)ethan-1-one] | 0.01 | 0.031 | 87.4 | 0.0663 | 0.00066 | 0.00271 | 901 | 0.267 | 0.00267 | 0.0279 | 10321 | 2.391 | 0.0239 | 0.32 | 0.24 | 0.1 | 0.07 | 0.0134 | 75.9 | Kp uu at 1 h ([2]; brain/plasma, 20 mg/kg oral, male mouse, 1.5 hr, read-out: Kpuu (Cu,brain vs. Cu,plasma)): 0.1; Kp uu at 1 h ([2]; brain/plasma, 60 mg/kg oral, male mouse, 1.5 hr, read-out: Kpuu (Cu,brain vs. Cu,plasma)): 0.08; concentration at 1 h ([2]; male, mouse, brain, oral, 20 mg/kg, 20 mg/kg oral, 1.5 hr, read-out: Brain con.): 0.721 µM; concentration at 1 h ([2]; male, mouse, brain, oral, 20 mg/kg, 20 mg/kg oral, 1.5 hr, read-out: Cu, brain): 0.00721 µM; concentration at 1 h ([2]; male, mouse, brain, oral, 60 mg/kg, 60 mg/kg oral, 1.5 hr, read-out: Brain con.): 5 µM; concentration at 1 h ([2]; male, mouse, brain, oral, 60 mg/kg, 60 mg/kg oral, 1.5 hr, read-out: Cu, brain): 0.05 µM; concentration at 1 h ([2]; male, mouse, plasma, oral, 20 mg/kg, 20 mg/kg oral, 1.5 hr, read-out: Cu, plasma): 0.0757 µM; concentration at 1 h ([2]; male, mouse, plasma, oral, 20 mg/kg, 20 mg/kg oral, 1.5 hr, read-out: Plasma con.): 2.44 µM; concentration at 1 h ([2]; male, mouse, plasma, oral, 60 mg/kg, 60 mg/kg oral, 1.5 hr, read-out: Cu, plasma): 0.622 µM; concentration at 1 h ([2]; male, mouse, plasma, oral, 60 mg/kg, 60 mg/kg oral, 1.5 hr, read-out: Plasma con.): 20.1 µM
